102 compounds from PubChem BioAssay AID1996 can be followed below.

In brackets after ≈: the same amount, converted by molar mass.

The conditions of this series: buffer; pH 7.4; 200.0 µM.
Regarding `COc1cc(C2Nc3cccc4cccc(c34)N2)ccc1O`, the kinetic solubility came out at 35.5 µg/mL (≈ 121 µM). The figure for `Cc1cccc(N2CCN(C(=O)c3ccc4[nH]c(C)c(C)c4c3)CC2)c1C` is 4.2 µg/mL (≈ 11.6 µM); for `CCC1C(=O)Nc2ccccc2N1C(=O)COc1ccccc1` (configuration not stated) it is over 46.6 µg/mL; for `Cc1cccc(/C=C/c2nc3ccccc3c(=O)[nH]2)c1` it is 0.6 µg/mL (≈ 2.29 µM). In the case of `CCC(Oc1ccccc1OC)C(=O)N1CC(=O)Nc2ccccc21` (configuration not stated), the solubility (kinetic) turned out to be 43 µg/mL (≈ 126 µM).

Turning to `Clc1ccc(COC(Cn2ccnc2)c2ccc(Cl)cc2Cl)c(Cl)c1.O=[N+]([O-])O` (configuration not stated), the kinetic solubility turned out to be 26.3 µg/mL.

For the compound `Cc1cccc(C)c1NC(=O)COC(=O)/C=C/c1ccc(S(=O)(=O)N2CCOCC2)cc1`, the kinetic solubility came to 2.2 µg/mL (≈ 4.8 µM).

In turn, `O=[N+]([O-])c1cc(S(=O)(=O)NC2=NCCCCC2)ccc1Cl` came in with a solubility (kinetic) of 39 µg/mL (≈ 118 µM).

Compound `O=[N+]([O-])c1ccc(Cl)c([N+](=O)[O-])c1` returned a solubility (kinetic) of 13.8 µg/mL (≈ 68.1 µM). The figure for `CC(=O)NC1C(Oc2ccccc2C)OC(CO)C(O)C1O` (configuration not stated) is over 46.7 µg/mL. In the case of `CCC(=O)Nc1ccc2c(c1)ncn2-c1ccc(C)cc1` it was over 41.9 µg/mL; in that of `Nc1ccc2c(c1)COC2=O`, 22.2 µg/mL (≈ 149 µM). As to `CCOC(=O)c1c(C)[nH]c(C)c1C(=O)COC(=O)c1cccs1`, the solubility (kinetic) is over 50.3 µg/mL. In the case of `O=C(CC(c1ccccc1)c1cc(Cl)ccc1O)NCCCN1CCOCC1` (configuration not stated) it was 59.2 µg/mL (≈ 147 µM); in that of `N#Cc1ccc(NC(=O)C2=COCCO2)cc1`, over 34.5 µg/mL; in that of `O=C(CCS(=O)(=O)c1ccccc1)Nc1ncc([N+](=O)[O-])s1`, 29.2 µg/mL (≈ 85.5 µM).

In turn, `CC(C)[C@H](NC(=O)N1CCC(Cc2ccccc2)CC1)C(=O)O` displayed a kinetic solubility of over 47.8 µg/mL.

Turning to `CCc1ccc(CCC(=O)Nc2ccc(Br)cc2)o1`, the solubility (kinetic) was 4.4 µg/mL (≈ 13.7 µM). Consider `O=C(Nc1cccc(C(=O)N2CCCc3ccccc32)c1)c1ccccc1`, for which the kinetic solubility was determined as 17.2 µg/mL (≈ 48.3 µM). In the case of `CN(Cc1ccc(F)cc1)Cc1nc(CCc2ccccc2)no1` it was 5.7 µg/mL (≈ 17.5 µM); in that of `Cc1ccc(C(=O)N2CCc3ccccc32)cc1[N+](=O)[O-]`, under 0.3 µg/mL; in that of `Cc1noc(C)c1C(=O)N(CC(C)C)c1nc2ccccc2s1`, 1.2 µg/mL (≈ 3.64 µM). The figure for `Cc1ccccc1N1CC(C(=O)NC2CCCC2)CC1=O` (configuration not stated) is over 43 µg/mL; for `N#Cc1ccc(NC(=O)CN2C(=O)NC3(CCCC3)C2=O)cc1` it is over 46.8 µg/mL. In the case of `CCOc1ccc(-c2c(=O)n(OCC)c3ccccc3[n+]2[O-])cc1` it was 21.1 µg/mL (≈ 64.7 µM).

`O=C(Nc1cccc(F)c1)N1CCN(C(=O)c2ccco2)CC1` registered a kinetic solubility of over 47.6 µg/mL. The figure for `CC(=O)Nc1cccc2c1Cc1ccccc1-2` is 11.7 µg/mL (≈ 52.4 µM); for `Cc1c(C(=O)N(C)CCn2ccnc2C)oc2c(F)cccc12` it is 38.1 µg/mL (≈ 121 µM); for `Cc1cccc(NC2=CC(=O)CC(C)(C)C2)c1C` it is over 36.5 µg/mL. In the case of `C1CN(CCN2CCOCC2)CCN1` it was 22.7 µg/mL (≈ 114 µM); in that of `COc1ccc(-c2ccc(C(=O)O)c(=O)[nH]2)cc1`, over 36.8 µg/mL. In the case of `CCOc1ncccc1C(=O)Nc1ncc(C)s1`, the kinetic solubility was 15.5 µg/mL (≈ 58.9 µM). In the case of `CN(CC(=O)N1CCOCC1)S(=O)(=O)c1ccc2ccccc2c1` it was over 52.3 µg/mL; in that of `CCCCn1c(N)c(N(CCC(C)C)C(=O)COC(=O)c2ccc([N+](=O)[O-])s2)c(=O)[nH]c1=O`, 25.1 µg/mL (≈ 52.1 µM). In turn, `CC1(C)Cc2ccccc2C(C(Cc2ccccc2)C(N)=O)=N1` (configuration not stated) yielded a kinetic solubility of 41.8 µg/mL (≈ 136 µM).

`N#C/C(=C\c1cc([N+](=O)[O-])ccc1Cl)C(N)=O` showed a solubility (kinetic) of 33.5 µg/mL (≈ 133 µM).

As for `O=C(CN1CCOCC1)Nc1ccc([N+](=O)[O-])cc1`, the kinetic solubility was found to be 39.3 µg/mL (≈ 148 µM). As for `O=C(CSc1ccc(F)cc1)NCCc1ccc(Cl)cc1`, the solubility (kinetic) turned out to be 8.6 µg/mL (≈ 26.6 µM). The figure for `Cc1ccc(NC(=O)c2cnccn2)cc1` is over 32 µg/mL; for `CC(=O)c1ccc(NC(=O)Nc2ccc3c(c2)nc(C)n3C)cc1` it is 4.1 µg/mL (≈ 12.7 µM); for `NS(=O)(=O)c1ccc(CNC(=O)c2ccncc2)cc1` it is over 43.7 µg/mL. In the case of `O=C(NCC(c1ccco1)N1CCCC1)c1cc(S(=O)(=O)N2CCCCC2)ccc1Cl` (configuration not stated) it was over 69.9 µg/mL; in that of `CCOC(=O)COc1ccc2c(c1)c(C(C)=O)c(C)n2-c1ccccc1`, under 0.8 µg/mL.

For `COc1ccc(NC(=O)NC2CCCCCCC2)cc1OC`, the kinetic solubility is 2.7 µg/mL (≈ 8.81 µM). `O=C1NCCO1`: the solubility (kinetic) was over 13.1 µg/mL.

Regarding `C#CCOc1ccc(/C=C2/C(=O)N(c3cccc(C(=O)O)c3)N=C2C)cc1OC`, the kinetic solubility was over 58.6 µg/mL.

In the case of `CC(C)COC(=O)N1C[C@H](O)C[C@H]1C(=O)Nc1ccc(Cl)cc1`, the solubility (kinetic) was over 51.1 µg/mL. In the case of `Nc1nc(-c2ccc(S(=O)(=O)N3CCCCC3)cc2)cs1` it was 6.6 µg/mL (≈ 20.4 µM); in that of `O=Cc1sc([O-])nc1-[n+]1ccc2ccccc2c1`, 5.1 µg/mL (≈ 19.9 µM). The figure for `O=S(=O)(Nc1cccnc1)c1ccc(F)cc1` is over 37.8 µg/mL; for `COc1ccc(OC)c(NC(=S)Nc2ccccc2)c1` it is over 43.3 µg/mL.

Compound `OCC1CCCN(c2ncnc3scc(-c4ccccc4)c23)C1` (configuration not stated) yielded a solubility (kinetic) of 47.4 µg/mL (≈ 146 µM). In the case of `C=CCNc1nc(Cl)nc(Nc2cc(Cl)ccc2OC)n1` it was under 0.1 µg/mL; in that of `Cc1ccc(-n2c(SCC(=O)N3CCCCC3)nc(O)cc2=O)cc1`, 49.9 µg/mL (≈ 139 µM). In the case of `O=C(COC(=O)c1cnccn1)c1ccc(Cl)cc1` it was 38.4 µg/mL (≈ 139 µM); in that of `O=C(Nc1cccc(Cl)c1)C1=CC=CN2CCS(=O)(=O)N=C12`, 7.1 µg/mL (≈ 21 µM); in that of `CC(C)(C)c1ccc(/C=C(\C#N)C(=O)Nc2ccccn2)cc1`, 0.6 µg/mL (≈ 1.96 µM). The figure for `O=C(CN1C(=O)C(=O)N(C2CCCC2)C1=O)NCCc1ccc(F)cc1` is over 54.2 µg/mL; for `CC1=NCCN1CCNC(=O)Nc1ccc(F)cc1` it is over 39.6 µg/mL; for `CC(=O)NCCc1nc2cc(NC(=O)c3cccc([N+](=O)[O-])c3)ccc2n1C` it is 3.5 µg/mL (≈ 9.18 µM). `Cc1ccc(OCCCn2ccnc2)c(Br)c1`: the kinetic solubility is 30.8 µg/mL (≈ 104 µM). Compound `Cc1ccnc(NC(=O)COC(=O)c2ccc(F)cc2F)n1` displayed a solubility (kinetic) of over 46.1 µg/mL. In the case of `COc1ccccc1N1CCN(C(=O)c2cc(S(=O)(=O)N3CCCCC3)ccc2C)CC1.Cl` it was 68.1 µg/mL; in that of `COc1ccccc1N1C(=O)c2ccccc2NC1c1ccc(O)cc1` (configuration not stated), 12.8 µg/mL (≈ 37 µM); in that of `Cc1nc2ccccc2c(N)c1C(=O)/C=C/c1ccccc1`, over 43.3 µg/mL. The figure for `Cc1cccn2cc(CCNS(=O)(=O)c3cccs3)nc12` is 45.6 µg/mL (≈ 142 µM); for `COC(=O)c1ccccc1NC(=O)c1cc[n+]([O-])cc1` it is 36.2 µg/mL (≈ 133 µM); for `O=C1CCCC/C1=C\Nc1ccc(S(=O)(=O)Nc2cnc3ccccc3n2)cc1` it is 15.9 µg/mL (≈ 38.9 µM). In the case of `COc1ccc(NC(=O)CCSc2nc(C)cs2)cc1` it was over 46.3 µg/mL; in that of `O=C(CN1C(=O)NC2(CCCC2)C1=O)NCc1ccco1`, over 43.7 µg/mL.

For the compound `CC1Cc2ccccc2N1C(=S)NC1CCCC1` (configuration not stated), the solubility (kinetic) stood at 13.7 µg/mL (≈ 52.6 µM). In the case of `N#Cc1c(-c2ccccc2)cc(-c2ccccc2)nc1SCCC(=O)O` it was over 54.1 µg/mL. The figure for `Cc1ccc(NS(=O)(=O)c2ccc(NC(=O)c3ccccc3C(=O)O)cc2)c(C)c1` is over 63.7 µg/mL; for `CCn1c(/N=C/c2ccc(OC)cc2O)nc2ccccc21` it is 15.6 µg/mL (≈ 52.8 µM). The figure for `CC(C)CCNC(=O)c1ccc2c(Cl)c3c(nc2c1)CCC3` is 0.5 µg/mL (≈ 1.58 µM); for `Cc1ccccc1NC(=O)C[n+]1cc(-c2ccccc2)n2c1CCC2.[Cl-]` it is over 55.2 µg/mL. `O=C1CCC(C(=O)N2CCOCC2)CN1Cc1ccc(Cl)cc1` (configuration not stated): the solubility (kinetic) was over 50.5 µg/mL. `CC(OC(=O)c1cnc2ccccc2n1)c1ccccc1Cl` (configuration not stated) yielded a solubility (kinetic) of 14.8 µg/mL (≈ 47.3 µM). The figure for `Cc1nn(CC(=O)NC2CCCC2)c(C)c1[N+](=O)[O-]` is over 39.9 µg/mL; for `O=C(NC1CCCCCC1)C1CCCN(c2ncccn2)C1` (configuration not stated) it is over 45.4 µg/mL; for `Cc1ccc(CS(=O)(=O)CCC(=O)NCCc2ccccc2)cc1` it is 5.2 µg/mL (≈ 15.1 µM). `NC(=O)C1CCN(C(=O)/C(=C/c2ccco2)NC(=O)c2ccccc2)CC1`: the solubility (kinetic) is over 55.1 µg/mL. In the case of `O=C(Nc1cccc(F)c1)c1c(O)c2cccc3c2n(c1=O)CCC3` it was under 0.4 µg/mL; in that of `CC(=O)Nc1ccc(NC(=O)c2cccc(Oc3ccccc3)c2)cc1`, under 0.4 µg/mL. `N#CC(C#N)=C(N)Nc1cccc(Cl)c1` displayed a solubility (kinetic) of 30.7 µg/mL (≈ 140 µM). `CCCCOc1ccc(Cn2c(=O)oc3ccccc32)cc1`: the kinetic solubility is under 0.6 µg/mL. The figure for `N#Cc1c(-c2ccccc2)nc(SCc2ccc([N+](=O)[O-])cc2)[nH]c1=O` is 52 µg/mL (≈ 143 µM). Compound `COc1cc2c(cc1OC)-c1cc(Nc3ccccc3)nc(=O)n1CC2` gave a kinetic solubility of 7.5 µg/mL (≈ 21.5 µM).

Take `CC(C)(C)C(=O)c1cn(Cc2ccccc2)c2ccccc12`: the kinetic solubility was found to be 1.5 µg/mL (≈ 5.15 µM).

Take `COc1ccc(CNc2ncnc3c2[nH]c2cc(OC)c(OC)cc23)cc1`: the solubility (kinetic) was found to be 1.2 µg/mL (≈ 3.29 µM). The figure for `Cc1ccc(S(=O)(=O)NC(=S)c2ccccc2)cc1` is over 43.7 µg/mL; for `O=c1[nH]c(SCCOc2ccccc2F)nc2ccccc12` it is 0.9 µg/mL (≈ 2.84 µM).

`Cc1ccc2[nH]c(C(=O)N3CCN(C=O)CC3)cc2c1` registered a solubility (kinetic) of over 40.7 µg/mL. As for `COc1ccc(CN2CCS(=O)(=O)CC2)cc1OC`, the solubility (kinetic) was over 42.8 µg/mL.

As to `Cc1c(Cl)cccc1NC(=O)CCC(=O)c1cccs1`, the solubility (kinetic) was 11.9 µg/mL (≈ 38.7 µM). In the case of `COc1ccc(-c2csc(NC(=O)CN3C(=O)CCC3=O)n2)cc1` it was 11.7 µg/mL (≈ 33.9 µM). The compound `CCCCCn1cnnc1SCC(=O)c1ccc2c(c1)OCO2` returned a solubility (kinetic) of over 50 µg/mL. In the case of `C=CCNC(=O)c1cc2c(=O)n3ccccc3nc2s1` it was 10.4 µg/mL (≈ 36.4 µM). In the case of `c1ccc(Sc2ccccn2)cc1` it was over 28.1 µg/mL; in that of `S=C(NC1CC1)N1CCN(C(=S)NC2CC2)CC1`, over 42.7 µg/mL. The figure for `O=C(OCc1ccccc1)c1cnc(Cl)c(Cl)c1` is 2.1 µg/mL (≈ 7.44 µM). Compound `COc1ccc2[nH]cc(CCNC(=O)CCC3CCCCC3)c2c1` gave a kinetic solubility of 29.9 µg/mL (≈ 91 µM).
